Results: patent publication US11597919B2, “Systems, methods and compositions for sequence manipulation with optimized functional CRISPR-Cas systems” (The Broad Institute, Inc., priority 2013, dated 2023)

B1: St3-SpCas9: St3Cas9 with the PI domain of SpCas9, SEQ ID NO: 122 (protein)
chain: MAPKKKRKVGIHGVPAAMTKPYSIGLDIGTNSVGWAVTTDNYKVPSKKMKVLGNTSKKYIKKNLLGVLLFDSGITAEGRRLKRTARRRYTRRRNRILYLQEIFSTEMATLDDAFFQRLDDSFLVPDDKRDSKYPIFGNLVEEKAYHDEFPTIYHLRKYLADSTKKADLRLVYLALAHMIKYRGHFLIEGEFNSKNNDIQKNFQDFLDTYNAIFESDLSLENSKQLEEIVKDKISKLEKKDRILKLFPGEKNSGIFSEFLKLIVGNQADFRKCFNLDEKASLHFSKESYDEDLETLLGYIGDDYSDVFLKAKKLYDAILLSGFLTVTDNETEAPLSSAMIKRYNEHKEDLALLKEYIRNISLKTYNEVFKDDTKNGYAGYIDGKTNQEEEDFYVYLKKLLAEFEGADYFLEKIDREDFLRKQRTFDNGSIPYQIHLQEMRAILDKQAKFYPFLAKNKERIEKILTFRIPYYVGPLARGNSDFAWSIRKRNEKITPWNFEDVIDKESSAEAFINRMTSFDLYLPEEKVLPKHSLLYETFNVYNELTKVRFIAESMRDYQFLDSKQKKDIVRLYFKDKRKVTDKDIIEYLHAIYGYDGIELKGIEKQFNSSLSTYHDLLNIINDKEFLDDSSNEAIIEEIIHTLTIFEDREMIKQRLSKFENIFDKSVLKKLSRRHYTGWGKLSAKLINGIRDEKSGNTILDYLIDDGISNRNFMQLIHDDALSFKKKIQKAQIIGDEDKGNIKEVVKSLPGSPAIKKGILQSIKIVDELVKVMGGRKPESIVVVVEMARENQYTNQGKSNSQQRLKRLEKSLKELGSKILKENIPAKLSKIDNNALQNDRLYLYYLQNGKDMYTGDDLDIDRLSNYDIDHIIPQAFLKDNSIDNKVLVSSASNRGKSDDVPSLEVVKKRKTFWYQLLKSKLISQRKFDNLTKAERGGLSPEDKAGFIQRQLVETRQITKHVARLLDEKFNNKKDENNRAVRTVKIITLKSTLVSQFRKDFELYKVREINDFHHAHDAYLNAVVASALLKKYPKLEPEFVYGDYPKYNSFRERKSATEKVYFYSNIMNIFKKSISLADGRVIERPLIEVNEETGESVWNKESDLATVRRVLSYPQVNVVKKTEVQTGGFSKESILPKRNSDKLIARKKDWDPKKYGGFDSPTVAYSVLVVAKVEKGKSKKLKSVKELLGITIMERSSFEKNPIDFLEAKGYKEVKKDLIIKLPKYSLFELENGRKRMLASAGELQKGNELALPSKYVNFLYLASHYEKLKGSPEDNEQKQLFVEQHKHYLDEIIEQISEFSKRVILADANLDKVLSAYNKHRDKPIREQAENIIHLFTLTNLGAPAAFKYFDTTIDRKRYTSTKEVLDATLIHQSITGLYETRIDLSQLGGDKRPAATKKAGQAKKKK
B2: Cas9 (A175-307): Cas9 mutant lacking the REC2 domain, SEQ ID NO: 116 (protein)
chain: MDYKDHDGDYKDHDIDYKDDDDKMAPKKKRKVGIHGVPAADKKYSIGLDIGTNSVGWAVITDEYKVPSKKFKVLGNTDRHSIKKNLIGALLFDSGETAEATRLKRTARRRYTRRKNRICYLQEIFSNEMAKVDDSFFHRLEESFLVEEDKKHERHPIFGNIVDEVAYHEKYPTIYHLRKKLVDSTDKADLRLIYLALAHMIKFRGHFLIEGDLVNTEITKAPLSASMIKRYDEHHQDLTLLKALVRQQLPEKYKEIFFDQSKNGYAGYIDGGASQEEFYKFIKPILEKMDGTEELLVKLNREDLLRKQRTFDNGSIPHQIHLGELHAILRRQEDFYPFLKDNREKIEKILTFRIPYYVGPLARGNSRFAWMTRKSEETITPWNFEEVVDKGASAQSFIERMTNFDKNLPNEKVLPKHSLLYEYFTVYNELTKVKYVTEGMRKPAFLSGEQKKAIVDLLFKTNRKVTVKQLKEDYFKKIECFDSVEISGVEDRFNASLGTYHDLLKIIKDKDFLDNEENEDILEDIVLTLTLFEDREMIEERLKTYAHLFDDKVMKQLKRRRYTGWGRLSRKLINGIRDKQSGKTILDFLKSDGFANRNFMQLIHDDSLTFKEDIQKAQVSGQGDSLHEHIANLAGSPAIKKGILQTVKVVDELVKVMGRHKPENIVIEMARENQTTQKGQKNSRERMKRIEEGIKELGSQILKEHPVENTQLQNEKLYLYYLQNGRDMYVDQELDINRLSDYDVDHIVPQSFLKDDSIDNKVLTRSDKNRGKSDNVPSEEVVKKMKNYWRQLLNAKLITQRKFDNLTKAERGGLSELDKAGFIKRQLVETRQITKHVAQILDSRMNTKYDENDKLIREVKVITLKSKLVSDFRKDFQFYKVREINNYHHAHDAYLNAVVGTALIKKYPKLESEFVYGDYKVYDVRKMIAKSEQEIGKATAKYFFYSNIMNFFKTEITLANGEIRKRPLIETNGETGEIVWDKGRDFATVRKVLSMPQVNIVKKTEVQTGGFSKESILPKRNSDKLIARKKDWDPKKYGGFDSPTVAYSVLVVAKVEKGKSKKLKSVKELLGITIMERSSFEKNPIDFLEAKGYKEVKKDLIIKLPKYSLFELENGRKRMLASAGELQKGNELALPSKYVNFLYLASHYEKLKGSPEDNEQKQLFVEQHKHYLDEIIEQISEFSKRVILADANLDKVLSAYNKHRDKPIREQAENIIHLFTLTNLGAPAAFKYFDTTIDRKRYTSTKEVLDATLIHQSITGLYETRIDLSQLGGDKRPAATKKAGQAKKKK
B3: A1099-1368: SpCas9 with deletion of the PI domain, SEQ ID NO: 118 (protein)
chain: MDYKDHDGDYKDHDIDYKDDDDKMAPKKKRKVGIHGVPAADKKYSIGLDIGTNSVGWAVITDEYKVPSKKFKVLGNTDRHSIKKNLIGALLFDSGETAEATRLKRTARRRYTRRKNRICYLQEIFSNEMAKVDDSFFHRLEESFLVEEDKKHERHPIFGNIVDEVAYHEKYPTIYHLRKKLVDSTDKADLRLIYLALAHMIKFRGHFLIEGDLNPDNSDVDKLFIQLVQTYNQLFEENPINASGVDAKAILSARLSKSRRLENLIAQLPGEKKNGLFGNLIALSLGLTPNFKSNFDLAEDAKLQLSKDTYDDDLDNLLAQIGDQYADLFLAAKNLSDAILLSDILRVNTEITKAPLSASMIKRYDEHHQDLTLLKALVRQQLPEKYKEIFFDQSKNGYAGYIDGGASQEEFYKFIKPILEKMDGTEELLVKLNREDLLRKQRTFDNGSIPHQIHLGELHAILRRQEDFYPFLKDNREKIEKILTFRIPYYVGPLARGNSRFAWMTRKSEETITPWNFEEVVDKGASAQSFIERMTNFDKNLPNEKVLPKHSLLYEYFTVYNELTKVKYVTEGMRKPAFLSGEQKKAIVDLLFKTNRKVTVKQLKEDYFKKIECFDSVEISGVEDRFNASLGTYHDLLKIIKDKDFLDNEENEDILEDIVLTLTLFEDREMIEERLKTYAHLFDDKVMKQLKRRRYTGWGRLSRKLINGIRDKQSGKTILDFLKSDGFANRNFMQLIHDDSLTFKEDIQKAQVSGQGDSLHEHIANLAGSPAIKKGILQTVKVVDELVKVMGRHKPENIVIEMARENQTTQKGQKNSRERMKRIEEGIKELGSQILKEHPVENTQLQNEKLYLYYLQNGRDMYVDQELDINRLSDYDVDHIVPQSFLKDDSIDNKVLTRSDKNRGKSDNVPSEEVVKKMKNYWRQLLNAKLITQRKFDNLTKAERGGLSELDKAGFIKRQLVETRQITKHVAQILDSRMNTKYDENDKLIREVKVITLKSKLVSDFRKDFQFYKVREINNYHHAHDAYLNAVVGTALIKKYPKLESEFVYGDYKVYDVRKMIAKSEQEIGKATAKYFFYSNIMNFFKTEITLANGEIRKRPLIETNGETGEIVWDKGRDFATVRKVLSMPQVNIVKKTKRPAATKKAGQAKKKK

Experiments:
Factor VII = details: LNP siRNA systems containing these lipids; cited from earlier work
[1] = tested on: target DNA with 5′-NGG PAM; assay: Cleavage of target DNA bearing 5′-NGG PAM by PI domain chimeras (Example 12); format: cell-based, human; details: 5′-GGGCT
Description: (§1) Cells were transfected using Lipofectamine 2000 (Life Technologies) at 70-80% confluency following the manufacturer's recommended protocol.
(§2) Genomic DNA was extracted using the QuickExtract DNA Extraction Solution (Epicentre) following the manufacturer's protocol.
(§3) 400 ng total of the purified PCR products were mixed with 2 μl 10× Taq DNA Polymerase PCR buffer (Enzymatics) and ultrapure water to a final volume of 20 μl, and subjected to a re-annealing process to enable heteroduplex formation: 95° C. for 10 min, 95° C. to 85° C. ramping at −2° C./s, 85° C. to 25° C. at −0.25° C./s, and 25° C. hold for 1 min. After re-annealing, products were treated with SURVEYOR nuclease and SURVEYOR enhancer S (Transgenomics) following the manufacturer's recommended protocol, and analyzed on 4-20% Novex TBE poly-acrylamide gels (Life Technologies). Gels were stained with SYBR Gold DNA stain (Life Technologies) for 30 min and imaged with a Gel Doc gel imaging system (Bio-rad). Quantification was based on relative band intensities. Indel percentage was determined by the formula, 100×(1−(1−(b+c)/(a+b+c))^1/2), where a is the integrated intensity of the undigested PCR product, and b and c are the integrated intensities of each cleavage product.

[2] = tested on: genomic DNA in human embryonic kidney 293FT (HEK293FT) cells; assay: SURVEYOR nuclease assay of Cas9 and sgRNA mutants (Example 12); format: cell-based
Description: as §1, §2, §3

| Molecule | gene silencing potency series (Factor VII) | further results |
| --- | --- | --- |
| 1,2-dilinoleyloxy-keto-N,N-dimethyl-3-aminopropane [DLinKDMA] | DLinKC2-DMA>DLinKDMA>DLinDMA>>DLinDAP |  |
| CCCCC/C=C\C/C=C\CCCCCCCC(=O)OCC(CN(C)C)OC(=O)CCCCCCC/C=C\C/C=C\CCCCC (stereo not shown) [DLinDAP, 1,2-dilineoyl-3-dimethylammonium-propane] | DLinKC2-DMA>DLinKDMA>DLinDMA>>DLinDAP |  |
| CCCCC/C=C\C/C=C\CCCCCCCCOCC(CN(C)C)OCCCCCCCC/C=C\C/C=C\CCCCC (stereo not shown) [DLinDMA, 1,2-dilinoleyloxy-3-N,N-dimethylaminopropane] | DLinKC2-DMA>DLinKDMA>DLinDMA>>DLinDAP |  |
| CCCCC/C=C\C/C=C\CCCCCCCCC1(CCCCCCCC/C=C\C/C=C\CCCCC)OCC(CCN(C)C)O1 (stereo not shown) [DLinKC2-DMA, 1,2-dilinoleyl-4-(2-dimethylaminoethyl)-[1,3]-dioxolane] | DLinKC2-DMA>DLinKDMA>DLinDMA>>DLinDAP |  |
| B1 |  | cleavage of target DNA with 5′-NGG PAM [1]: cleaved |
| B2 |  | activity relative to wild-type Cas9 ([2]; indel, SURVEYOR, n=3): ~50% |
| B3 |  | DNA cleavage activity ([2]; Cas9 truncation and point mutants): abolished the cleavage activity |
